# “Also recorded” adds a separate entry of the source.
# What was measured:
# [1] = system: burn wounds on human skin explants (zone of stasis); assay: Burn wound area measurement in ex-vivo human skin explant burn model; format: cell-based; settings: for size of the wounds compared with wounds treated with saline only: 0.02 μM copper ions
# Description: Human skin was obtained from healthy donors undergoing abdominal dermolipectomy after receiving informed consent. A 0.5 mm split-thickness skin graft was harvested using a dermatome (Aesculap AG & Co. KG, Tuttlingen, Germany) and was cut into 1 cm^2 pieces. Round burn wounds of with a diameter of […] were inflicted in the 0.7 cm^2 skin pieces by exposure to a soldering iron (95° C., 2 Sec). Triplicate pieces were kept intact as naïve controls. The injured and intact skin samples were placed dermis down on a stainless-steel grid and cultured at the air-liquid interface at 37° C. with 5% CO2 in Dulbecco's Modified Eagle's Medium (DMEM), 10% fetal calf serum (Biological Industries, Beit Ha′emek, Israel), and penicillin/streptomycin (100 IU/mL penicillin, […] streptomycin; Invitrogen). Culture medium was refreshed twice a week. The explants were cultured up to 27 days after wounding. Each individual experiment was performed with skin explants obtained from the same individual and the experiments were repeated at least three times. Reference is now made to FIGS. 1a and 1b schematically showing a side view and a top view, respectively, of this ex-vivo explant model. The skin explants are placed dermis down on a stainless-steel grid. Culture media is added to the bottom of the well, without reaching the epidermal layer, which is exposed to the air. […] From the stock solutions, solutions of 0.02 μM or 1 μM of copper ions were prepared in saline. […] Each control and treatment were performed in at least three replicate explants. Skin was obtained from 35-65-year-old healthy patients undergoing abdominoplasty surgery. The patient's under general anesthesia, went standard or circumferential abdominoplasty. After excision of the excess skin, the subcutaneous fat was removed using sterile technique. The defatted full-thickness skin was submerged in culture medium and transferred to the laboratory. The skin was cut into 8×8 mm squares by costume made apparatus. Round 0.8 mm diameter burn wounds were inflicted on the skin explants by exposure to a soldering iron (200° C., 10 Sec). The injured (burnt) and control intact skin samples were placed dermis down and kept at the air-liquid interface at 37° C. with 5% CO2 in Dulbecco's Modified Eagle's Medium supplemented with 100 IU/mL penicillin and […] streptomycin and 10% serum (Biological Industries, Beit Ha′emek, Israel). Culture medium was refreshed every 48 hours, i.e. immediately following injury and then again, every 48 hours, saline only or containing 0.02 μM or 1 μM copper ions were added onto the skin explant burn wounds. The explants were cultured up to 27 days after wounding. Pictures of burns were captured using Motic® Moticam 5+ camera at designated time points. Wound area was measured using ImageJ software suit. […]
# [2] = system: epidermis of human skin explants; assay: MTT viability assay of the epidermis of skin explants; format: cell-based; settings: 0.02 μM or 1 μM copper ions
# Description: To assess the cell viability throughout the culture period a 3-(4,5-dimethylthiazol-2-yl)-2,5-diphenyltetrazolium bromide (MTT) assay was performed at different days after wounding as follows:
# To assess the cell viability throughout the culture period a 3-(4,5-dimethylthiazol-2-yl)-2,5-diphenyltetrazolium bromide (MTT) assay was performed 1, 3, 5, 10, 14, 21 and 27 days, following wounding, as follows: skin explants were incubated for 60 sec in pre-warmed PBS (56° C.). Then the epidermis layer of each replicate was separated from the dermis by grabbing the tissue edge with tweezers and peeling the epidermis off using a scalpel. Epidermal pieces were transferred to 96 well-plate, each well contains 150 μl MTT (Sigma, 0.5 mg/ml) and incubated for 1 hour at 37° C. and reduced light conditions. Then, the epidermis pieces were transferred to a new 96 well-plate containing 150 μl of isopropanol. Plates were placed for 5 min, 200 rpm in a plate shaker (MRC, Beijing, China). Following incubation, epidermis sections were removed, and absorbance was measured at 570 nm in Tecan plate reader (Tecan Group Ltd. Switzerland).
# IL-6 = IL-6 secretion into spent medium by ELISA; format: cell-based, human
# Description: During harvesting time points, the spent medium from all Test Groups was collected and centrifuged at 1500×g for 5 minutes to remove particulates. Media were kept at −80° C. until use. The secretion levels of IL-6, IL-8 and TGF-β were measured by commercial Enzyme-Linked Immunosorbent Assay (ELISA) kits according to manufacturer instructions (Biolegend, San Diego, CA). Briefly, plates were coated for 24 hours prior to assay with a specific anti-human capture antibody. At the day of the assay, coated plates were incubated with samples, followed by washes for unbound molecules. Then additional detection antibody was added and detected by Avidin-HRP solution. Finally, wells were incubated with a substrate solution, while absorbance was measured at 570 nm. In order to further understand how addition of copper ions affected the skin explants, the amounts of Interleukin 6 (IL-6), Interleukin 8 (IL-8) and transforming growth factor beta (TGF-β) found in the medium of the various treated explants were determined. FIGS. 3a, 3c and 3e show the cytokine expression in burn-induced inflammation in human ex vivo skin and comparison between the IL-6, IL-8 and TGF-β secretion by the untreated skin explants (Naïve Controls) and the wounded skin explants (Burn Controls) following wounding. […]
# IL-8 = IL-8 secretion into spent medium by ELISA; format: cell-based, human
# Description: (§1) During harvesting time points, the spent medium from all Test Groups was collected and centrifuged at 1500×g for 5 minutes to remove particulates. Media were kept at −80° C. until use. The secretion levels of IL-6, IL-8 and TGF-β were measured by commercial Enzyme-Linked Immunosorbent Assay (ELISA) kits according to manufacturer instructions (Biolegend, San Diego, CA). Briefly, plates were coated for 24 hours prior to assay with a specific anti-human capture antibody. At the day of the assay, coated plates were incubated with samples, followed by washes for unbound molecules. Then additional detection antibody was added and detected by Avidin-HRP solution. Finally, wells were incubated with a substrate solution, while absorbance was measured at 570 nm.
# In order to further understand how addition of copper ions affected the skin explants, the amounts of Interleukin 6 (IL-6), Interleukin 8 (IL-8) and transforming growth factor beta (TGF-β) found in the medium of the various treated explants were determined. FIGS. 3a, 3c and 3e show the cytokine expression in burn-induced inflammation in human ex vivo skin and comparison between the IL-6, IL-8 and TGF-β secretion by the untreated skin explants (Naïve Controls) and the wounded skin explants (Burn Controls) following wounding. […]
# TGF-β = TGF-β secretion into spent medium by ELISA; format: cell-based, human
# Description: as §1
# In order to further understand how addition of copper ions affected the skin explants, the amounts of Interleukin 6 (IL-6), Interleukin 8 (IL-8) and transforming growth factor beta (TGF-β) found in the medium of the various treated explants were determined. FIGS. 3a, 3c and 3e show the cytokine expression in burn-induced inflammation in human ex vivo skin and comparison between the IL-6, IL-8 and TGF-β secretion by the untreated skin explants (Naïve Controls) and the wounded skin explants (Burn Controls) following wounding. In these figures, the p values of a t-test between the cytokine expressions per a particular day following wounding are shown. Measurements were normalized to amount of cytokine secreted from normal skin and are presented as percent of Naïve control.
# Reference is also made to FIGS. 3b, 3d and 3f showing the effect of addition of copper ions (0.02 μM or 1 μM) on secretion of IL-6, IL-8 and TGF-β, respectively, as compared to Naïve Controls and Burn Controls on Day 4 (treated with saline only) (FIGS. 3b and 3d) and on Day 6 (FIG. 3f) after wounding. In the graphs, the star sign “*” indicates the statistically significant difference as compared to the Naïve Controls, while the net sign “#” indicates the statistically significant difference as compared to the untreated (treated with saline only) Burn Controls.
# [3] = system: burned human skin explants; assay: Histology of skin explants (H&E, Masson's trichrome); format: cell-based
# Description: At indicated harvesting time points, skin explants were fixed with 4% formaldehyde for 1 hour at room temperature. Then, the samples were washed twice with PBS and kept at 70% ethanol at 2-8° C. until use. Following dehydration in gradual increasing concentrations of ethanol and embedment, paraffin sections (8 μm) were prepared, pasted on slides and either stained with haematoxylin and eosin (H&E) or Masson trichrome stain, according to the manufacturer specification (Sigma-Aldrich) followed by mounting with DPX mountant (Sigma, Israel).
# Examination of tissue formation was performed on day 12 and 27. Sections of Normal and Burned skin, treated or not with copper ions were stained with H&E and Masson's trichrome staining respectively. FIGS. 6a-6c show full length images of sections stained with H&E.
# [4] = system: Ki67 stained cells in burned human skin explants; assay: Ki67 immunostaining of proliferating keratinocytes at the re-epithelisation area; format: cell-based; settings: FIG. 7
# Description: Immunostaining with Rabbit-anti Ki67 (Abcam, UK) was performed following rehydration, blocking in 2% BSA in PBS for 20 mins, for 2 hours, followed by exposure to Goat Anti-Rabbit IgG H&L (HRP) for one hour and detection by DAB substrate (Abcam, UK). Washes were then performed in 0.025% Tween/PBS. Counterstain was performed with haematoxylin (Sigma, Israel). Images were captured using Zeiss® PrimoVert microscope connected to Motic® Moticam 5+ camera.
structure (smiles),measurement,setting,value
[Cu+] [copper ions],size of the wounds compared with wounds treated with saline only,[1]; 5 and 10 days following wounding,similarly smaller wounds
same,size of the wounds compared with wounds treated with saline only,[1]; three days following wounding,statistically smaller than the wounds which are treated with saline only
same,burn size at the end of the experiment,[1]; end of the experiment,not massively improved
same,increase in burn size that occurs after the initial damage,[1]; topical application of the ions,prevented the increase in burn size
same,viability of burned skin explants compared with untreated pieces,"[2]; 5 days after burn, differences not statistically significant",a trend of increased viability
same,viability of burned skin explants compared with untreated pieces,[2]; after 1 day,remained similar to the untreated pieces
same,levels of IL-6,IL-6; Day 1 following the burn,dramatically elevated in the Burn Controls but not in the copper ion treated samples
same,IL-6 levels compared with Burn Control samples,IL-6; after Day 4,no significant differences in IL-6 levels
same,burn-induced increase of IL-8 compared with Burn Controls,"IL-8; 0.02 μM or 1 μM copper ions from both copper sources, Day 4 (FIG. 3d)",significantly lower; also recorded: significantly attenuated or abolished
same,amount of IL-8 secreted compared with Burn control samples,IL-8; Day 1,did not differ significantly
same,burn-induced increase of TGF-β compared with Burn Controls,"TGF-β; 0.02 μM or 1 μM copper ions from both copper sources, Day 4 (FIG. 3f)",dramatically inhibited; also recorded: significantly attenuated or abolished; also recorded: significantly inhibited
same,TGF-β level,TGF-β; Day 6 and onwards,returning to normal levels
same,TGF-β secretion compared with Burn control samples,TGF-β; other examined days,no statistically significant differences
same,re-epithelisation (epithelia regeneration),"[3]; 0.02 μM and 1 μM copper ions, 12 days, H&E, vs Burn Control",Beginning of epithelia regeneration (grey arrows) is seen; also recorded: newly formed epithelia
same,detachment of the epidermal tissue from the dermis,"[3]; 0.02 μM or 1 μM copper ions, day 12, H&E, FIGS. 6b and 6c",less detached of the epidermal tissue from the dermis
same,re-epithelisation,"[3]; Day 27, Masson's trichrome, FIG. 4c, vs control samples",clear re-epithelisation occurred
same,collagen stain / amount of collagen fibers in the dermal layer,"[3]; Day 27, Masson's trichrome, FIG. 4c, vs saline-treated control",an increase in the amount of collagen fibers; also recorded: greater collagen stain
same,amount of Ki67 stained cells compared to control,[4]; 0.02 μM copper ions,significantly higher amount of Ki67 stained cells
same,newly proliferating cells stained with Ki67,[4]; skin pieces fixed after 12 days,significantly more common

# From patent publication US20250009791A1, “METHOD FOR PREVENTION AND REDUCTION OF SKIN STASIS WITH COMPOSITIONS AND MATERIALS COMPRISING COPPER COMPOUNDS” (MEDCU TECHNOLOGIES LTD., priority 2018, published 2025)
